{"source": "patent US20120083473A1", "about": "“TREATMENT OF CONDITIONS BY TOLL-LIKE RECEPTOR MODULATORS” (priority 2010, published 2012)", "key": {"[1]": {"experiment": "Intravenous acute toxicity in mice", "format": "in vivo", "conditions": "i.v."}, "human monocytes (Mo) [2]": {"system": "human monocytes (Mo)", "experiment": "Cytokine/chemokine secretion by TMX-tolerant human monocytes (ELISA)", "format": "cell-based", "method": "(§1) Cell Culture and treatments. Monocytes (Mo) were obtained from buffycoats collected from healthy donors as previously described (Porta C et al, PNAS 2009). Cells were incubated in RPMI 1640 medium, containing 10% fetal bovine serum, 2 mM glutamine and 100 U/ml of penicillin-streptomycin. The concentrations for the different treatments were as follows: LPS (100 ng/ml) (Lipopolysaccharide from Salmonella Abortus Equi S-form, Alexis), CpG (1 microg/ml), Pam3CSK (2 microg/ml), Poly I:C (10 microg/ml), Loxorubine (100 microM), flagellin (100 ng/ml). To induce TMX tolerance, cells were incubated in the presence of TMX (10 microM) for 20 hrs, washed and maintained in RPMI medium for 2 hrs and then re-challenged with TMX (10 microM) for 4 hrs. To induce TMX-tolerization (T/M) cells were treated with TMX for 20 hrs, washed and then maintained in medium for additional 6 hours, without TMX re-challenge. To induce M1-activation cells were incubated in medium for 20 hrs, washed, left in medium for 2 hrs and finally stimulated with TMX (10 microM) for 4 hrs. Control cells (M/M) were cultured in medium for the entire period of the experiment. For gene expression analysis, total RNA was extracted from TMX treated and untreated cells with trizol (Invitrogen), according to the manufacturer's instructions. To analyze cytokines and chemokines production supernatants were collected 24 hrs after the second challenge with TMX.\nELISA. Cell-free supernatants were tested by ELISA for the indicated cytokines/chemokines. Human TNF-alpha, IL-6, IL-1beta, IL-10, CCL17 and CCL22 ELISA kits were purchased from R&D Systems (Minneapolis, Minn.)."}, "human monocytes (Mo) [3]": {"system": "human monocytes (Mo)", "experiment": "M1/M2 gene expression in human monocytes (Real-Time PCR)", "format": "cell-based", "method": "(§2) To evaluate the effects of TMX on human cell activation, monocytes were isolated from buffy coats obtained from four different healthy donors. With respect to macrophage tolerance, cells were treated with Compound 2 (10 microM) up to 20 hours and then re-challenged with agonists/ligands of different TLRs (TLR2, TLR4, TLR5, TLR9, TLR7, etc. . . . ), including the TLR7 unconjugated ligand 1V209 (free pharmacophore) at a concentration of 10 microM.\nas §1\n(§3) Real-Time PCR. Total RNA was purified as previously described. Briefly, reverse transcription from 1 microgram of RNA was performed using a cDNA Archive kit (Applied Biosystem, NJ, USA). Real time PCR was performed using Power Syber Green PCR Master Mix (Applied Biosystem, NJ, USA) and detected by 7900HT Fast Real-Time System (Applied Biosystem, NJ, USA). Data were processed using the SDS2.2.2 software (Applied Biosystem, NJ, USA). Results were normalized to the expression of the housekeeping gene 8-actin and then expressed as folds of upregulation, with respect to the control cell population."}, "human monocytes (Mo) [4]": {"system": "human monocytes (Mo)", "experiment": "Cross-tolerance toward TLR ligands in human monocytes (gene expression)", "format": "cell-based", "method": "as §2, §1, §3"}, "[5]": {"experiment": "PK analysis after i.v. administration in mice", "format": "in vivo"}, "Stability of the API": {"experiment": "Stability of the API", "format": "physicochemical", "conditions": "for stability of powder: preliminary", "method": "Compound 2 powder underwent preliminary stability testing at 25° C. for 6 months and 40° C. for three months. […] Aqueous solutions of Compound 2 (2 mg/ml) are stable up to 4 weeks at 37° C."}, "[6]": {"conditions": "TMX-tolerized cells re-challenged with TMX or 1V209"}}}
{"smiles": "COCCOc1nc(N)c2nc(O)n(Cc3ccc(C(=O)NCCOCCOCCOCCOCCOCCOCCn4cc(CCC(=O)O)nn4)cc3)c2n1", "note": "[Compound 2]", "values": [{"measurement": "dose up to which no toxic clinical signs were produced", "setting": "[1]", "result": "up to 1000 mg/kg"}, {"measurement": "levels of IL-10 in the supernatant of TMX-tolerant monocytes", "setting": "human monocytes (Mo) [2]", "result": "decreased"}, {"measurement": "secretion of selected M2 markers (CCL17 and CCL22)", "setting": "human monocytes (Mo) [2]; TMX-tolerized Mo from 2 out of 4 healthy donors", "result": "significantly augmented"}, {"measurement": "CCL17 and CCL22 secretion", "setting": "human monocytes (Mo) [2]; [6]", "result": "induction"}, {"measurement": "TNFalpha and IL-6 secretion", "setting": "human monocytes (Mo) [2]; [6]", "result": "inhibition"}, {"measurement": "IL-10 production by Compound 2-conditioned cells", "setting": "human monocytes (Mo) [2]; as stated in comparison of human and mouse data", "result": "increased"}, {"measurement": "TNF and IL-6 secretion", "setting": "human monocytes (Mo) [2]; cells tolerized with TMX and re-challenged with TLR agonists, except for LPS", "result": "decreased"}, {"measurement": "IL-1beta production in TMX-tolerized cells", "setting": "human monocytes (Mo) [2]; re-challenged with TLR agonists", "result": "all TLR agonists promote IL-1beta production"}, {"measurement": "IL-10 expression in tolerant Mo as compared to activated Mo", "setting": "human monocytes (Mo) [3]", "result": "inhibited"}, {"measurement": "M1 markers CXCL9, IFNbeta, iNOS and M2 cytokine TGFbeta", "setting": "human monocytes (Mo) [3]", "result": "No significant modulation"}, {"measurement": "tolerizing and polarizing activity on human cells as compared to murine cells", "setting": "human monocytes (Mo) [3]", "result": "partial tolerizing and polarizing activity"}, {"measurement": "M1 (TNF-alpha, IL-1-beta IL-6, IL-12, CXCL10) gene expression in state of tolerance", "setting": "human monocytes (Mo) [3]; 10 microM, 20 hours, Mo from 3 out of 4 healthy donors", "result": "low"}, {"measurement": "M1 markers TNF-alpha, IL12-p40 IL-1 IL6 CXCL10 and IFNbeta", "setting": "human monocytes (Mo) [3]; TMX pretreatment", "result": "down-regulated"}, {"measurement": "M2 genes CCL17, CCL18, CCL22 in tolerant versus activated Mo", "setting": "human monocytes (Mo) [3]; few exceptions (CCL18, CCL22 in single donors)", "result": "further induced"}, {"measurement": "M2 signature chemokines CCL17, CCL18 and CCL22", "setting": "human monocytes (Mo) [3]; presence of TMX compound", "result": "increased"}, {"measurement": "TNFalpha, IL-1 beta, IL-6 and IL-12 gene expression in response to TLR ligands", "setting": "human monocytes (Mo) [4]; Mo tolerized by 20 hours pre-treatment, excluding Pam", "result": "inability to up-regulate"}, {"measurement": "down-regulation of M1 marker IL-12p40", "setting": "human monocytes (Mo) [4]; TMX pretreatment, stimulation through TLRs other than TLR7", "result": "~10", "unit": "fold"}, {"measurement": "M2 gene induction, CCL17 in particular", "setting": "human monocytes (Mo) [4]; TMX treatment, TLR agonist re-challenge", "result": "strongly enhanced"}, {"measurement": "Th2-recruiting chemokines genes (CCL17, CCL22) on TLR engagement", "setting": "human monocytes (Mo) [4]; tolerized Mo, but not IL-10", "result": "trigger the expression"}, {"measurement": "AUC in comparison with Compound 3", "setting": "[5]", "result": "lower"}, {"measurement": "Cmax in comparison with Compound 3", "setting": "[5]", "result": "lower"}, {"measurement": "clearance in comparison with Compound 3", "setting": "[5]", "result": "higher"}, {"measurement": "half life in comparison with Compound 3", "setting": "[5]", "result": "longer"}, {"measurement": "stability of powder", "setting": "Stability of the API; 25° C. for 6 months", "result": "no degradation or impurity profile changes"}, {"measurement": "stability of powder", "setting": "Stability of the API; 40° C. for three months", "result": "no degradation or impurity profile changes"}, {"measurement": "time aqueous solutions are stable", "setting": "Stability of the API; aqueous solutions 2 mg/ml, 37° C.", "result": "up to 4 weeks"}]}
